From PubChem BioAssay AID256 (DTP/NCI, 2004)
Toxic doses and inconclusive results are not listed. Rule for the calls: active = survival T/C of 150% or more; inactive = T/C below 125% in these data.

Tested on: CD2F1 mice, L1210 leukemia ip, survival T/C
Experiment: NCI In Vivo Anticancer Drug Screen. Data for tumor model L1210 Leukemia (intraperitoneal) in CD2F1 (CDF1) mice
Conditions: higher = longer survival
Summary of the method: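 Each value reflects a quotient of treated over vehicle control outcomes in mice with a transplanted tumor.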

[1] = endpoint: mean survival time, dose: 100.0 mg/kg/injection, schedule: Q04DX003 (ip), vehicle: acetone
[2] = endpoint: mean survival time, dose: 100.0 mg/kg/injection, schedule: Q01DX001 (ip), vehicle: saline with Tween-80
[3] = endpoint: mean survival time, dose: 200.0 mg/kg/injection, schedule: Q01DX001 (ip), vehicle: saline with Tween-80
[4] = endpoint: mean survival time, dose: 400.0 mg/kg/injection, schedule: Q01DX001 (ip), vehicle: saline with Tween-80
[5] = endpoint: mean survival time, dose: 100.0 mg/kg/injection, schedule: Q04DX002 (ip), vehicle: saline with Tween-80
[6] = endpoint: mean survival time, dose: 100.0 mg/kg/injection, schedule: Q04DX003 (ip), vehicle: saline with Tween-80
[7] = endpoint: mean survival time, dose: 200.0 mg/kg/injection, schedule: Q04DX003 (ip), vehicle: saline with Tween-80
[8] = endpoint: mean survival time, dose: 400.0 mg/kg/injection, schedule: Q04DX003 (ip), vehicle: saline with Tween-80
[9] = endpoint: mean survival time, dose: 100.0 mg/kg/injection, schedule: Q01DX001 (ip), vehicle: Klucel (hydroxypropylcellulose) (HPC)
[10] = endpoint: mean survival time, dose: 400.0 mg/kg/injection, schedule: Q01DX001 (ip), vehicle: Klucel (hydroxypropylcellulose) (HPC)
[11] = endpoint: mean survival time, dose: 100.0 mg/kg/injection, schedule: Q01DX009 (ip), vehicle: saline with Tween-80
[12] = endpoint: mean survival time, dose: 200.0 mg/kg/injection, schedule: Q01DX009 (ip), vehicle: saline with Tween-80
[13] = endpoint: mean survival time, dose: 400.0 mg/kg/injection, schedule: Q01DX009 (ip), vehicle: saline with Tween-80
[14] = endpoint: mean survival time, dose: 25.0 mg/kg/injection, schedule: Q04DX003 (ip), vehicle: saline with Tween-80
[15] = endpoint: mean survival time, dose: 50.0 mg/kg/injection, schedule: Q04DX003 (ip), vehicle: saline with Tween-80

Measured: T/C

Nc1ccc(CCCCc2ccccc2)cc1
inactive: [1] 107 % of control

O=C(COc1cccc(Cl)c1)NCc1ccccc1NC(=O)c1ccc(S(=O)(=O)F)cc1
inactive: [2] 91 % of control | [3] 95 % of control | [4] 91 % of control

CN(C)c1ccc(/C=C2N=C(/C=C\c3ccccc3)OC\2=O)cc1
inactive: [5] 98 % of control | endpoint: mean survival time, dose: 200.0 mg/kg/injection, schedule: Q04DX002 (ip), vehicle: saline with Tween-80 94 % of control | endpoint: mean survival time, dose: 400.0 mg/kg/injection, schedule: Q04DX002 (ip), vehicle: saline with Tween-80 105 % of control

CC(=O)C(=O)C(C)=O
inactive: [6] 94 % of control | [7] 91 % of control | [8] 105 % of control

CCN(CC)C(=O)C(C)C1CCC2C3CC=C4CC(OC(=O)c5cc([N+](=O)[O-])cc([N+](=O)[O-])c5)CCC4(C)C3CCC12C (configuration not stated)
inactive: [2] 94 % of control | [3] 94 % of control | [4] 98 % of control

O=C(OCC(OC(=O)c1ccccc1)C1OC(OC(=O)c2ccccc2)C(OC(=O)c2ccccc2)C1OC(=O)c1ccccc1)c1ccccc1 (configuration not stated)
inactive: [9] 88 % of control | endpoint: mean survival time, dose: 200.0 mg/kg/injection, schedule: Q01DX001 (ip), vehicle: Klucel (hydroxypropylcellulose) (HPC) 95 % of control | [10] 95 % of control

CC1(C)C2CCC1(CS(=O)(=O)O)C(=O)C2.[Ag] (configuration not stated)
inactive: [1] 96 % of control

OCCN(Cc1ccccc1)C(c1ccccc1)c1ccccc1
inactive: endpoint: mean survival time, dose: 100.0 mg/kg/injection, schedule: Q04DX003 (ip), vehicle: Klucel (hydroxypropylcellulose) (HPC) 91 % of control | endpoint: mean survival time, dose: 200.0 mg/kg/injection, schedule: Q04DX003 (ip), vehicle: Klucel (hydroxypropylcellulose) (HPC) 97 % of control | endpoint: mean survival time, dose: 400.0 mg/kg/injection, schedule: Q04DX003 (ip), vehicle: Klucel (hydroxypropylcellulose) (HPC) 97 % of control

c1ccc(C[S][Sn]([c]2ccccc2)([c]2ccccc2)[c]2ccccc2)cc1
inactive: endpoint: mean survival time, dose: 25.0 mg/kg/injection, schedule: Q04DX002 (ip), vehicle: saline with Tween-80 91 % of control | endpoint: mean survival time, dose: 50.0 mg/kg/injection, schedule: Q04DX002 (ip), vehicle: saline with Tween-80 102 % of control | [5] 94 % of control

CCOC(=O)C[S+](C)C
inactive: endpoint: mean survival time, dose: 75.0 mg/kg/injection, schedule: Q01DX001 (ip), vehicle: saline 90 % of control | endpoint: mean survival time, dose: 150.0 mg/kg/injection, schedule: Q01DX001 (ip), vehicle: saline 93 % of control

CCCCCCCCSCC(CSCCCCCCCC)(CSCCCCCCCC)CSCCCCCCCC
inactive: [2] 101 % of control | [3] 93 % of control | [4] 93 % of control

CCOC(=O)CCCc1ccccc1
inactive: [11] 93 % of control | [12] 95 % of control | [13] 102 % of control

Cc1cc(C)c(C(=O)C2Oc3ccccc3C2c2ccccc2)c(C)c1 (configuration not stated)
inactive: [11] 95 % of control | [6] 100 % of control | [12] 97 % of control | [7] 102 % of control | [13] 91 % of control | [8] 100 % of control

CCCCCCCCN(c1ccc(C(=O)NC(CCC(=O)OCC)C(=O)OCC)cc1)S(=O)(=O)c1ccc(C)cc1 (configuration not stated)
inactive: endpoint: mean survival time, dose: 12.5 mg/kg/injection, schedule: Q04DX003 (ip), vehicle: saline with Tween-80 94 % of control | [14] 100 % of control | [15] 102 % of control | [6] 86 % of control | [7] 86 % of control | [8] 87 % of control

CS/C(N)=N\C(=S)Nc1ccccc1
inactive: [11] 103 % of control | [12] 103 % of control | [13] 101 % of control

O=[N+]([O-])c1ccc(C2C3C(c4ccccc4)=NCN32)cc1 (configuration not stated)
inactive: [6] 96 % of control | [7] 97 % of control | [8] 92 % of control

Cc1ccc(OCCOc2ccc([N+](=O)[O-])cc2)cc1
inactive: endpoint: mean survival time, dose: 200.0 mg/kg/injection, schedule: Q04DX003 (ip), vehicle: other 92 % of control | endpoint: mean survival time, dose: 400.0 mg/kg/injection, schedule: Q04DX003 (ip), vehicle: other 90 % of control

COc1ccc2nc3c4ccccc4scc-3c2c1
inactive: endpoint: mean survival time, dose: 25.0 mg/kg/injection, schedule: Q01DX009 (ip), vehicle: Klucel (hydroxypropylcellulose) (HPC) 109 % of control | endpoint: mean survival time, dose: 50.0 mg/kg/injection, schedule: Q01DX009 (ip), vehicle: Klucel (hydroxypropylcellulose) (HPC) 97 % of control | endpoint: mean survival time, dose: 100.0 mg/kg/injection, schedule: Q01DX009 (ip), vehicle: Klucel (hydroxypropylcellulose) (HPC) 110 % of control

CC(C)[Si]1(C(C)C)OCC2OC(c3cn(C)c(=O)n(C)c3=O)C(OC(=S)n3ccnc3)C2O[Si](C(C)C)(C(C)C)O1 (configuration not stated)
inactive: endpoint: median survival time, dose: 12.5 mg/kg/injection, schedule: Q01DX005 (ip), vehicle: distilled water + Tween-80 98 % of control | endpoint: median survival time, dose: 25.0 mg/kg/injection, schedule: Q01DX005 (ip), vehicle: distilled water + Tween-80 98 % of control | endpoint: median survival time, dose: 50.0 mg/kg/injection, schedule: Q01DX005 (ip), vehicle: distilled water + Tween-80 92 % of control | endpoint: median survival time, dose: 100.0 mg/kg/injection, schedule: Q01DX005 (ip), vehicle: distilled water + Tween-80 92 % of control | endpoint: median survival time, dose: 200.0 mg/kg/injection, schedule: Q01DX005 (ip), vehicle: distilled water + Tween-80 92 % of control

[C-]#[O+].[Cl][Sn]([Cl])[Cl].[Cl][Sn]([Cl])[Cl].[Pt].c1ccncc1
inactive: endpoint: median survival time, dose: 3.12 mg/kg/injection, schedule: Q04DX003 (ip), vehicle: saline with Tween-80 113 % of control | endpoint: median survival time, dose: 6.25 mg/kg/injection, schedule: Q04DX003 (ip), vehicle: saline with Tween-80 110 % of control | endpoint: median survival time, dose: 12.5 mg/kg/injection, schedule: Q04DX003 (ip), vehicle: saline with Tween-80 110 % of control | endpoint: median survival time, dose: 25.0 mg/kg/injection, schedule: Q04DX003 (ip), vehicle: saline with Tween-80 102 % of control | endpoint: median survival time, dose: 50.0 mg/kg/injection, schedule: Q04DX003 (ip), vehicle: saline with Tween-80 108 % of control | endpoint: median survival time, dose: 100.0 mg/kg/injection, schedule: Q04DX003 (ip), vehicle: saline with Tween-80 108 % of control | endpoint: median survival time, dose: 200.0 mg/kg/injection, schedule: Q04DX003 (ip), vehicle: saline with Tween-80 120 % of control

Cc1ccc(N2CCOC2=O)cc1N1CCOC1=O
inactive: endpoint: mean survival time, dose: 25.0 mg/kg/injection, schedule: Q01DX009 (ip), vehicle: other 100 % of control | endpoint: mean survival time, dose: 50.0 mg/kg/injection, schedule: Q01DX009 (ip), vehicle: other 105 % of control | endpoint: mean survival time, dose: 100.0 mg/kg/injection, schedule: Q01DX009 (ip), vehicle: other 102 % of control

C1=C(Nc2ccccc2)C(=Nc2ccccc2)C=C(Nc2ccccc2)C1=Nc1ccccc1
inactive: [14] 96 % of control | [15] 96 % of control | [6] 98 % of control

O=C1c2ccccc2C(=O)N1c1ccc(Br)cc1
inactive: [9] 100 % of control | [10] 96 % of control

CC(C)(C)c1cc(CN2CCCC(O)C2)c(O)c(-c2ccccc2)c1 (configuration not stated)
inactive: endpoint: mean survival time, dose: 50.0 mg/kg/injection, schedule: Q01DX009 (ip), vehicle: saline 107 % of control | endpoint: mean survival time, dose: 100.0 mg/kg/injection, schedule: Q01DX009 (ip), vehicle: saline 104 % of control

CCOC(=O)Cc1c(C)[nH]c2c(C)ccc(C)c12
inactive: endpoint: mean survival time, dose: 100.0 mg/kg/injection, schedule: Q01DX001 (ip), vehicle: other 95 % of control
